Tests used:
[1] = test system: S3 fibroblasts; experiment: Connexon activity, lucifer yellow uptake, 96 well plate; type: cell-based, mouse
Method: FIG. 3. A. Connexon activity in fibroblasts from WT, S3 and S3 treated with KN93 was monitored in a 96 well plate assay, using lucifer yellow as a fluorescent dye (see methods). Fluorescence is in arbitrary units. B, C and D. Connexon activity of WT mouse fibroblasts (B), S3 transgenic mouse (C) and S3 incubated with KN93 (D), were incubated with LY for two hours and examined under a fluorescent microscope.
One hundred thousand cells were cultured as described above for one day with or without CamKII inhibitors (KN62 or KN93 at a final concentration of 10 μM). Lucifer yellow (LY) was added to the medium (final concentration: 110 mM) and incubated for two hours. Fluorescence was recorded using a Perkin Elmer Victor 4 microplaque reader (excitation: 405 nm, emission: 535 nm).
Fibroblasts from WT and S3 (treated or not with KN93) have been cultured for 2 days in 96 wells microplaques. Lucifer yellow has been then added to the medium and fluorescence monitored after 2 hours (cell auto fluorescence and fluorescence of LY without cells, have been evaluated and substracted). This experiment has been repeated three time.

[2] = test system: S3 transgenic line (mutated human Cx32 S26L); experiment: Rotarod locomotor test, S3 transgenic line; type: in vivo, mouse
Method: (§1) Transgenic animals received intraperitoneal injections, either with a placebo (0.9% physiological serum) or with KN 93 (1.5 mg/kg). Treatment took place every day for one month.
(§2) Locomotor ability was tested using the rotarod procedure, requiring motor coordination and balance control. A machine manufactured by Bioseb was used for this purpose. A previously used procedure (Norreel et al., 2001) was adapted and two velocities (15 and 25) were used. Briefly, each mouse underwent the same 5-day procedure. The first two days were used to train the animals (five sessions of 2-min walking at a very low speed, i.e. five rotations per minute (r.p.m.)). The last three days were used to run the test sessions. Each day, the mice performed two series of five trials, a training speed with a 1-h rest period between the two series and a 5-min rest period between two consecutive trials. The software provided by Bioseb (Sedacom v1) was used to monitor the time the animals were on the rod.
Mouse (4) from the S3 transgenic line have been treated either with a placebo or with soluble KN93. Locomotor performances of the animals have been evaluated using the rotarod test after one month of treatment. Performances of WT and S3 treated with KN93, are not statistically different. On the contrary performances of S3 animals treated either with a placebo or with KN93 are highly statistically significant (p value<0.0001). Treatment has been stopped for one month and rotarod performances evaluated. Rotarod performances of KN 93 treated or placebo treated degrade and are not statistically different.

[3] = test system: S3 cells; experiment: Connexon activity of S3 cells treated with KN62 and KN93 derivatives; type: cell-based, mouse; conditions: for Connexon activity at 0.1 μM / Connexon activity at 1 μM / Connexon activity at 10 μM / Connexon activity at 50 μM: 24 hours of treatment
Method: Animal cells and wild-type mouse cells transgenic animals S3 created in the as described in EXAMPLE 13 are cultured in 96-well microplates. We have shown that the S3 cells have an abnormality of the connexon activity due to the mutation of connexin 32 introduced in this line. […] The cells were incubated with new molecules and connexon activity was evaluated. […] Regarding KN93 derivatives most substitutions suppress the activity “correction activity connexon” molecules, excepting for a few molecules.
S3 cells were treated with various molecules, at increasing concentrations. Moreover transgenic animals of the same lineage cells and untreated transgenic animals are used as controls. The connexon activity was assessed after 24 hours of treatment. The activity is expressed in thousands of arbitrary fluorescence units. […] As a comparison we use the reference molecule KN 93 at a concentration of 10 μM.

[4] = test system: S3 fibroblasts; experiment: Nuclear volume evaluation (DAPI, ImageJ) in cultured fibroblasts; type: cell-based, mouse; conditions: for Nuclear Volume: S3 fibroblasts cultured 24 hrs with CamKII inhibitor, WT 8607, untreated S3 15029; for Effect on nuclear (cellular) volume, in words: S3 fibroblasts treated with inhibitor
Method: (§3) For the isolation of fibroblasts a small fragment of mouse ear was removed, dipped in alcohol solution, cut into small pieces in a sterile Petri dish in the presence of PBS containing fungicide (fonigizon) diluted 1/250, and transferred to 2-ml tubes containing 1 ml dissociation buffer (DMEM plus 20% FBS, 1 mg/ml BSA, 0.5 mg/ml collagenase, 0.25 mg/ml trypsin and penicillin/streptomycin). The tubes were incubated in a water bath with agitation for 1 h at 37° C. Fibroblast medium (DMEM, 10% FBS, 2 mM Gln, 100 U/ml penicillin, 100 μg/ml streptomycin) was added to each tube and the samples were centrifuged at 400 g for 10 min. The cells were re-suspended in fibroblast medium, seeded into Petri dishes and placed in an incubator at 37° C., 5% CO2. The culture medium was replaced every two days. When the cultures reached sub-confluence, the cells were trypsinized and expanded into tissue culture flasks. All experiments were performed using cells between passage numbers four and eight.
Nuclei were stained with DAPI and nuclear volume was evaluated with ImageJ software.
Nuclear volume correction. Fibroblasts from Wild type (WT) and S3 transgenic mouse have been cultured for 24 hrs with or without CamKII inhibitors (KN62 and KN93). Nuclear volume has been evaluated using the Imagej software. […] This experiment has been repeated three time.

[5] = test system: S3 fibroblasts; experiment: Centrosome number per cell (γ-tubulin labelling); type: cell-based, mouse; conditions: for >centro (percentage of cells with more than two centrosomes) / 2 centro (percentage of cells with two centrosomes) / 1 centro (percentage of cells with one centrosome): S3 fibroblasts cultured with inhibitor; for >centro (percentage of cells with more than two centrosomes): WT 3, untreated S3 18; for 2 centro (percentage of cells with two centrosomes): WT 18, untreated S3 22; for 1 centro (percentage of cells with one centrosome): WT 79%, untreated S3 60%; for Effect on centrosome number per cell, in words: S3 fibroblasts treated with inhibitor
Method: as §3
Cells were grown on glass coverslips for 24 h to allow cultures to reach 80% confluence. To measure the number of centrosomes, cells were fixed with 4% PFA, permeabilized with methanol at −20° C. for 8 min and blocked with 0.5% Triton X-100 in PBS for 30 min at RT. To detect g-tubulin, cells were incubated overnight at 4° C. with a mouse anti-g-tubulin antibody (GTU-88; Sigma) diluted 1/1000 in PBS containing 0.1% milk and 0.05% Triton X-100. After washing, the cells were incubated for 1 h at RT with Cy3-conjugated goat antimouse IgG secondary antibody (Caltag Laboratories) diluted 1/2000 in PBS containing 0.1% milk and 0.05% Triton X-100. The preparations were counterstained with DAPI in Vectashield mounting medium (Vector Laboratories). Fluorescent images were acquired with a microscope (Leica DMR) equipped with a PL APO objective.
Number of centrosomes per cell. Fibroblasts from WT and S3 have been cultured with or without CamKII inhibitors. Centrosome number per cell has been evaluated as described in methods. […] This experiment has been repeated three time.

[6] = test system: G2 transgenic line (mutated human Cx32 G12S); experiment: Rotarod locomotor test, G2 transgenic line; type: in vivo, mouse
Method: FIG. 4. Mice from the G2 line were treated either with a placebo (4 animals) or with soluble KN93 (4 animals, 1.5 mg/kg, i.p., 1 administration per day) for one month and performances on the rotarod evaluated. Treatment was then stopped and locomotor performances evaluated one month later.
as §1, §2
Mouse from the G2 transgenic line have been treated either with a placebo (4 animals) or with soluble KN93 (4 animals). Locomotor performances of the animals have been evaluated using the rotarod test after one month of treatment. Performances of WT and G2 treated with KN93, are not statistically different. On the contrary performances of G2 animals treated either with a placebo or with KN93 are highly statistically significant (p value<0.0001). Treatment has been stopped for one month and rotarod performances evaluated. Rotarod performances of KN 93 treated or placebo treated degrade and are not statically different.

[7] = test system: CamKII; conditions: cited from earlier work

For `COc1ccc(S(=O)(=O)N(CCO)c2ccccc2CN(C)C/C=C/c2ccc(Cl)cc2)cc1` [KN93], the “Effect on connexon activity, in words” value ([1]; S3 cells treated with KN93) was “significantly improved though not totally restored”, the LY intensity ([1]; S3 fibroblasts, KN93 10 μM, fluorescence 2 hours after lucifer yellow, WT 63, untreated S3 17) was 28 +/− 9 arbitrary units and the “Degradation of locomotor capacities, in words” value ([2]; S3 animals, soluble form 1.5 mg/kg i.p. per day) was “lowered”. For the same compound, the “Locomotion after stopping the treatment, in words” value ([2]; S3 animals, treatment stopped) was “strong degradation of locomotion”, the “Mean Minutes on rotarod, W4 treated” value ([2]; S3 line, 1.5 mg/kg i.p. per day for one month, T0 2.7, W4 placebo 2.1) was 2.5 min and the “Mean Minutes on rotarod, W4 treated + 1 month arrest” value ([2]; S3 line, one month after stopping treatment, placebo + arrest 1.5) was 1.41 min. The “Connexon activity, KN93 reference column” value ([3]; KN93 10 μM, 24 hours, WT 230, untreated S3 126-129) was 191 thousands of arbitrary fluorescence units, the “Nuclear Volume” value [4] was 11000 and the “Effect on nuclear (cellular) volume, in words” value [4] was “restitution of normal cellular volume”. The “>centro (percentage of cells with more than two centrosomes)” value [5] was 7%, the “2 centro (percentage of cells with two centrosomes)” value [5] was 20% and the “1 centro (percentage of cells with one centrosome)” value [5] was 73%. For the same compound, the “Effect on centrosome number per cell, in words” value (“Effect … per cell, in words” for short) [5] was “returns to close to normal”, the “Effect on progression of locomotor phenotype, in words” value ([6]; G2 animals, soluble form 1.5 mg/kg i.p. per day) was “significantly lowers the progression of the phenotype” and the “Locomotor activity after treatment stopped, in words” value ([6]; G2 animals, treatment stopped after one month) was “rapid degradation of the locomotor activity ensued”. The “Mean Minutes on rotarod, W4 treated” value ([6]; G2 line, 1.5 mg/kg i.p. per day for one month, T0 3.90, W4 placebo 3.20) was 3.6 min and the “Mean Minutes on rotarod, W4 treated + 1 month arrest” value ([6]; G2 line, one month after stopping treatment, placebo + arrest 2.84) was 2.9 min.

With `CN([C@@H](Cc1ccc(OS(=O)(=O)c2cccc3cnccc23)cc1)C(=O)N1CCN(c2ccccc2)CC1)S(=O)(=O)c1cccc2cnccc12` [KN62, 1-[N,Obis(5-isoquinolinesulfonyl)-N-methyl-L-tyrosyl]-4-phenylpiperazine] the “Nuclear Volume” value [4] was 10100, the “Effect on nuclear (cellular) volume, in words” value [4] was “restitution of normal cellular volume” and the “>centro (percentage of cells with more than two centrosomes)” value [5] was 6%. The “2 centro (percentage of cells with two centrosomes)” value [5] was 32%, the “1 centro (percentage of cells with one centrosome)” value [5] was 62% and the “Effect … per cell, in words” value [5] was “returns to close to normal”.

For `COc1ccc(S(=O)(=O)N(CCO)c2ccccc2CN(C)CCCc2ccc(Cl)cc2)cc1` [CM08-40, N-[2-({[3-(4-chlorophenyl)propyl](methyl)amino}methyl)phenyl]-2-hydroxy-S′-(4-methoxyphenyl)ethane-1-sulfonamido], the “Connexon activity at 0.1 μM” value [3] was 169 thousands of arbitrary fluorescence units, the “Connexon activity at 1 μM” value [3] was 169 thousands of arbitrary fluorescence units and the “Connexon activity at 10 μM” value [3] was 167 thousands of arbitrary fluorescence units. The “Connexon activity at 50 μM” value [3] was 162 thousands of arbitrary fluorescence units.

In the case of `COc1ccc(S(=O)(=O)N(CCO)c2ccccc2CN(C)Cc2ccccc2)cc1` [CM08-33, N-(2-{[benzyl(methyl)amino]methyl}phenyl)-2-hydroxy-S′-(4-methoxyphenyl)ethane-1-sulfonamido], the “Connexon activity at 0.1 μM” value [3] is reported as 162 thousands of arbitrary fluorescence units, the “Connexon activity at 1 μM” value [3] is reported as 196 thousands of arbitrary fluorescence units and the “Connexon activity at 10 μM” value [3] is reported as 189 thousands of arbitrary fluorescence units. The “Connexon activity at 50 μM” value [3] was 180 thousands of arbitrary fluorescence units.

With `COc1ccc(S(=O)(=O)N(CCO)c2ccccc2CN(C)C/C=C/c2ccccc2)cc1` [CM08-16, 2-hydroxy-S-(4-methoxyphenyl)-N′-[2-({methyl[(2E)-3-phenylprop-2-en-1-yl]amino}methyl)phenyl]ethane-1-sulfonamido] the “Connexon activity at 0.1 μM” value [3] was 131 thousands of arbitrary fluorescence units, the “Connexon activity at 1 μM” value [3] was 142 thousands of arbitrary fluorescence units and the “Connexon activity at 10 μM” value [3] was 159 thousands of arbitrary fluorescence units. The “Connexon activity at 50 μM” value [3] was 160 thousands of arbitrary fluorescence units.

With `COc1ccc(S(=O)(=O)Nc2ccccc2CN(C)C/C=C/c2ccc(Cl)cc2)cc1` [KN92] the “>centro (percentage of cells with more than two centrosomes)” value [5] was 20%, the “2 centro (percentage of cells with two centrosomes)” value [5] was 20% and the “1 centro (percentage of cells with one centrosome)” value [5] was 60%. For the same compound, the “Effect … per cell, in words” value [5] was “unchanged” and the “CamKII inhibitory activity, in words” value [7] was “no CamKII inhibitory activity”.

For `COc1ccc(S(=O)(=O)N(CCO)c2ccccc2CN(C)Cc2ccc3ccccc3c2)cc1` [CM08-18, 2-hydroxy-S-(4-methoxyphenyl)-N′-(2-{[methyl(naphthalen-2-ylmethyl)amino]methyl}phenyl)ethane-1-sulfonamido], the “Connexon activity at 0.1 μM” value [3] was 125 thousands of arbitrary fluorescence units, the “Connexon activity at 1 μM” value [3] was 150 thousands of arbitrary fluorescence units and the “Connexon activity at 10 μM” value [3] was 162 thousands of arbitrary fluorescence units. The “Connexon activity at 50 μM” value [3] was 174 thousands of arbitrary fluorescence units.
